Reference: ChEMBL document CHEMBL1126223, “Adenosine deaminase inhibitors. Synthesis and biological evaluation of C1' and nor-C1' derivatives of (+)-erythro-9-(2(S)-hydroxy-3(R)-nonyl)adenine” (J Med Chem, 1992)
pKi: −log10 of the molar value.

Each molecule was assayed against T1, Adenosine deaminase (Bos taurus, UniProt P56658) (assay: Binding affinity (Ki) at calf intestinal Adenosine deaminase).
T1 sequence (P56658 whole entry): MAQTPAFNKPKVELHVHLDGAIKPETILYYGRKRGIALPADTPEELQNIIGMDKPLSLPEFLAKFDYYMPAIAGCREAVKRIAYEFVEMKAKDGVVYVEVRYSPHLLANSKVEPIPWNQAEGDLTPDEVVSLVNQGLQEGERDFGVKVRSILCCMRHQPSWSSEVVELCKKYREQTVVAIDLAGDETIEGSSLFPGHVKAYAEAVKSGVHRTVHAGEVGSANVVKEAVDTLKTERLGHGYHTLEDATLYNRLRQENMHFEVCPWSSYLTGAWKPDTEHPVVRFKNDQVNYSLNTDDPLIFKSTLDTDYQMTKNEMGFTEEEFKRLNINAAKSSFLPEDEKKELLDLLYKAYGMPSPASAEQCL

| pKi | SMILES |
| --- | --- |
| 7.25 | CCCCCC[C@H]([C@@H](O)CO)n1cnc2c(N)ncnc21 |
| 5.80 | CCCCCC[C@H](CF)n1cnc2c(N)ncnc21 |
| 8.70 | CCCCCC[C@H]([C@H](C)O)n1cnc2c(N)ncnc21 [(+)-EHNA] |

| SMILES | pKi |
| --- | --- |
| CCCCCC[C@H]([C@@H]1CO1)n1cnc2c(N)ncnc21 | 6.05 |
| CCCCCC[C@H](CO)n1cnc2c(N)ncnc21 | 7.33 |

What follows are molecules tested against T1, Adenosine deaminase (assay: Binding affinity (Ki) at calf intestinal adenosine deaminase.).

| pKi | SMILES |
| --- | --- |
| 6.49 | CCCCCC[C@H](CCl)n1cnc2c(N)ncnc21 |
| 6.22 | CCCCCC[C@H](CBr)n1cnc2c(N)ncnc21 |
| 6.00 | CCCCCC[C@@H]1[C@@H](O)C[n+]2cnc(N)c3ncn1c32 |
| 5.89 | CCCCCC[C@H](CN=[N+]=[N-])n1cnc2c(N)ncnc21 |
| 8.40 | CCCCCC[C@@H]([C@@H](C)O)n1cnc2c(N)ncnc21 [EHNA] |
